The values that follow are results of earlier work, collected in patent publication US6340480B1, “Natural composition for the treatment of circulatory conditions” (priority 1998, dated 2002).

This series deals with Activated Macrophages. As to conditions: for killing certain tumor cells; literature study.

For the molecule `CC(C)=CCC[C@](C)(O[C@@H]1O[C@H](CO)[C@@H](O)[C@H](O)[C@H]1O)[C@H]1CC[C@]2(C)[C@@H]1[C@H](O)C[C@@H]1[C@@]3(C)CC[C@H](O)C(C)(C)[C@@H]3[C@@H](O[C@@H]3O[C@H](CO)[C@@H](O)[C@H](O)[C@H]3O)C[C@]12C` [RG1], the “production of NO” value is “enhances the production of NO”.
